Experimental data published in patent publication US9247759B2, “Identification of human T2R receptors that respond to bitter compounds that elicit the bitter taste in compositions, and the use thereof in assays to identify compounds that inhibit (block) bitter taste in compositions and use thereof” (SENOMYX, INC., priority 2007, dated 2016).
Like-named read-outs stand apart in the source and are kept apart here.

Legend:
hT2R71 = hT2R71 (Homo sapiens (Human), UniProt P59536); assay: hT2R panel inhibition, transient HEK293 G16g44, agonist Picric Acid 10 μM; type: cell-based; conditions: HEK293, compound at 25 μM
Chain of hT2R71 (P59536 whole entry): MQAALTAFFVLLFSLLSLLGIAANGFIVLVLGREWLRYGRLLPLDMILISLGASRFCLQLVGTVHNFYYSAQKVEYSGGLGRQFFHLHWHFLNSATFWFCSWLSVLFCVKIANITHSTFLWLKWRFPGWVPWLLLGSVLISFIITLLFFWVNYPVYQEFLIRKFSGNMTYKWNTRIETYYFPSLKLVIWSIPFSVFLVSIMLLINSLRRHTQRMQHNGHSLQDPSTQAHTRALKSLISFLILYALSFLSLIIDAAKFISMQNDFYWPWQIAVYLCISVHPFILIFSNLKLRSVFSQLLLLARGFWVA
Protocol: (§1) Specifically, in order to evaluate the inhibitory selectivity of the Compound C compound, this compound was tested against 22 human T2Rs which were deorphaned by Senomyx. These receptors and the bitter ligands that activate these human T2Rs are reported in earlier patent applications which are incorporated by reference herein. These 22 human T2Rs are hT2R1, 3, 4, 5, 7, 8, 9, 10, 13, 14, 16, 44, 51, 54, 55, 61, 63, 64, 65, 67, 71 and 75. The amino acid and nucleic acid sequences of all of these T2Rs may be found in these earlier patent applications. These human T2Rs were each individually transiently transfected into HEK293 cells that stably express the promiscuous G protein G16g44 and functional assays were effected using these receptors as disclosed in these same patent applications. […] The ligands were used at EC80 concentration levels. The list of bitter ligands utilized and the tested ligand concentrations are contained in Table 5 of this example.
(§2) Relating to the foregoing, FIG. 5 contains experimental results wherein Compound C was tested with different agonist compounds. The inhibition activity is represented by the reduction of receptor activity in the presence of Compound C. […] These 13 hT2Rs are hT2R3, 7, 10, 14, 16, 44, 51, 55, 61, 63, 64, 65, and 71.

hT2R63 = assay: hT2R panel inhibition, transient HEK293 G16g44, agonist Caffeine 1 mM or Andrographolide 100 μM; type: cell-based, human; conditions: compound at 25 μM; for screening result against bitter receptor 63: receptor activated to EC80 with the corresponding agonist
Method in brief: (§3)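 The test compound's selectivity was profiled by challenging each transiently expressed human T2R with its activating bitter ligand at an EC80 concentration, inhibition being the reduction of receptor signalling it produced.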

hT2R16 = hT2R16 (Homo sapiens (Human), UniProt Q9NYV7); assay: hT2R panel inhibition, transient HEK293 G16g44, agonist Salicin 1 mM; type: cell-based; conditions: HEK293, compound at 25 μM
Chain of hT2R16 (Q9NYV7 whole entry): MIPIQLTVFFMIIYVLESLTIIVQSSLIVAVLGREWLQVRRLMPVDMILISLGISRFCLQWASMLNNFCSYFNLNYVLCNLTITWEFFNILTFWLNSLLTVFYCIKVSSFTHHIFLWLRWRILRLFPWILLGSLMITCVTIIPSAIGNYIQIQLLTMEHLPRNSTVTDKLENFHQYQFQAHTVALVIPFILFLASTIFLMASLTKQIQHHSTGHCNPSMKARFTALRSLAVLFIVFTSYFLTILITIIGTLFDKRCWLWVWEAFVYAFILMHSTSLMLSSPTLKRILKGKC
Protocol: as §1, §2

hT2R61 = hT2R61 (Homo sapiens (Human), UniProt P59537); assay: hT2R panel inhibition, transient HEK293 G16g44, agonist Aristolochic Acid 25 nM; type: cell-based; conditions: HEK293, compound at 25 μM
Chain of hT2R61 (P59537 whole entry): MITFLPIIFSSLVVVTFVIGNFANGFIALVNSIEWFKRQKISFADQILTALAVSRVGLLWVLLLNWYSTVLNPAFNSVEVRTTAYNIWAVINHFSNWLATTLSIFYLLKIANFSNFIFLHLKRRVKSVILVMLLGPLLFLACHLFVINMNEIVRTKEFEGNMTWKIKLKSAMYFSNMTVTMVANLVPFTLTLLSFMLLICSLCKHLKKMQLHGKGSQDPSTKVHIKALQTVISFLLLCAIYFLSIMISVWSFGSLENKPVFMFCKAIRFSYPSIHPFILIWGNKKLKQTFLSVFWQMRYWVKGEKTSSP
Method in brief: as §3

hT2R44 = assay: hT2R panel inhibition, transient HEK293 G16g44, agonist Denatonium 0.5 μM; type: cell-based, human; conditions: compound at 25 μM; for screening result against bitter receptor 44: receptor activated to EC80 with the corresponding agonist
Protocol: as §1, §2

hT2R54 = assay: hT2R panel inhibition, transient HEK293 G16g44, agonist Ranitidine 5 mM; type: cell-based, human; conditions: compound at 25 μM; for screening result against bitter receptor 54: receptor activated to EC80 with the corresponding agonist
Protocol: as §1, §2

hT2R67 = assay: hT2R panel inhibition, transient HEK293 G16g44, agonist Andrographolide 5 μM; type: cell-based, human; conditions: compound at 25 μM; for screening result against bitter receptor 67: receptor activated to EC80 with the corresponding agonist
Protocol: as §1, §2

hT2R64 = hT2R64 (Homo sapiens (Human), UniProt P59538); assay: hT2R panel inhibition, transient HEK293 G16g44, agonist Aristolochic Acid 1 μM; type: cell-based; conditions: HEK293, compound at 25 μM
Chain of hT2R64 (P59538 whole entry): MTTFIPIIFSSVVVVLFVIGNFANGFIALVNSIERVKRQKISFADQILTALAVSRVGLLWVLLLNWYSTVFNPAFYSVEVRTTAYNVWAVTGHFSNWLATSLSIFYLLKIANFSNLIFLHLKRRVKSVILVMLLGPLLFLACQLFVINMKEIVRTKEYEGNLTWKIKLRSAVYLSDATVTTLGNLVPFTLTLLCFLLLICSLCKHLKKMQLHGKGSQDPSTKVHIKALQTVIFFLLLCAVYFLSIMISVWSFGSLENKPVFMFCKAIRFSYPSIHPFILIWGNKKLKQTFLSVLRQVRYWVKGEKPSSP
Method in brief: as §3

hT2R55 = assay: hT2R panel inhibition, transient HEK293 G16g44, agonist Cinchonine 150 μM; type: cell-based, human; conditions: compound at 25 μM; for screening result against bitter receptor 55: receptor activated to EC80 with the corresponding agonist
Protocol: as §1, §2

hT2R14 = hT2R14 (Homo sapiens (Human), UniProt Q9NYV8); assay: hT2R panel inhibition, transient HEK293 G16g44, agonist Aristolochic Acid 2 μM; type: cell-based; conditions: HEK293, compound at 25 μM
Chain of hT2R14 (Q9NYV8 whole entry): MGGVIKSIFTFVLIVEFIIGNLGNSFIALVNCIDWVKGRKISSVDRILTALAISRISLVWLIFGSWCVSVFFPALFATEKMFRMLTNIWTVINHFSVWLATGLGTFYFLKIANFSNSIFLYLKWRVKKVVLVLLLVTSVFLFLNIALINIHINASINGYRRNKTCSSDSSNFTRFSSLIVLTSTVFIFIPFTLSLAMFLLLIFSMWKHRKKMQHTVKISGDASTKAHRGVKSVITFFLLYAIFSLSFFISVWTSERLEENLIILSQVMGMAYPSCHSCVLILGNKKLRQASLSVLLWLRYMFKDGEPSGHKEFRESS
Method in brief: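 Each hT2R was transiently transfected into HEK293 cells stably expressing G16g44 and assayed functionally for inhibition of agonist response. Agonists were applied at EC80: andrographolide at 0.5 mM for hT2R8 and aristolochic acid at 2 μM for hT2R14.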

hT2R5 = hT2R5 (Homo sapiens (Human), UniProt Q9NYW4); assay: hT2R panel inhibition, transient HEK293 G16g44, agonist Picoline 10 mM; type: cell-based; conditions: HEK293, compound at 25 μM; receptor activated to EC80 with the corresponding agonist; read-out: screening result against bitter receptor 5
Chain of hT2R5 (Q9NYW4 whole entry): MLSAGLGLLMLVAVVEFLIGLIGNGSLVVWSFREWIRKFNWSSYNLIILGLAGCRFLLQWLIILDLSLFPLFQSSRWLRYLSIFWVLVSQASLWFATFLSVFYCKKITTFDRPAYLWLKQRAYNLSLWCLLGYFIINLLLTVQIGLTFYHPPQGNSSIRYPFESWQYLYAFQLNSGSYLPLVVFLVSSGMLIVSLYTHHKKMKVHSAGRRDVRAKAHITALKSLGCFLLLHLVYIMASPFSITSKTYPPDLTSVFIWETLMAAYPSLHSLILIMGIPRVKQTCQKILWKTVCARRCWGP
Protocol: as §1, §2

hT2R10 = hT2R10 (Homo sapiens (Human), UniProt Q9NYW0); assay: hT2R panel inhibition, transient HEK293 G16g44, agonist Strychnine 50 μM; type: cell-based; conditions: HEK293, read-out: screening result against bitter receptor 10, compound at 25 μM; receptor activated to EC80 with the corresponding agonist
Chain of hT2R10 (Q9NYW0 whole entry): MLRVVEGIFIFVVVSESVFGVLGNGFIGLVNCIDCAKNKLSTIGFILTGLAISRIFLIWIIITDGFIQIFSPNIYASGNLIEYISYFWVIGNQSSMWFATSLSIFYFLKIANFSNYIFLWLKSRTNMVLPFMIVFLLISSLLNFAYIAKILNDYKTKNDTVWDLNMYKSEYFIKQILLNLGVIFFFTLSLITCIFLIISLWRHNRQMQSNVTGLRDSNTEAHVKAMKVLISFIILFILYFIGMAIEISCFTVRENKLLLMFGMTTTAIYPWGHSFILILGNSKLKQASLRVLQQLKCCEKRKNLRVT
Protocol: as §1, §2

hT2R3 = hT2R3 (Homo sapiens (Human), UniProt Q9NYW6); assay: hT2R panel inhibition, transient HEK293 G16g44, agonist Chloroquine pH6.5 50 μM; type: cell-based; conditions: HEK293, compound at 25 μM; receptor activated to EC80 with the corresponding agonist; read-out: screening result against bitter receptor 3
Chain of hT2R3 (Q9NYW6 whole entry): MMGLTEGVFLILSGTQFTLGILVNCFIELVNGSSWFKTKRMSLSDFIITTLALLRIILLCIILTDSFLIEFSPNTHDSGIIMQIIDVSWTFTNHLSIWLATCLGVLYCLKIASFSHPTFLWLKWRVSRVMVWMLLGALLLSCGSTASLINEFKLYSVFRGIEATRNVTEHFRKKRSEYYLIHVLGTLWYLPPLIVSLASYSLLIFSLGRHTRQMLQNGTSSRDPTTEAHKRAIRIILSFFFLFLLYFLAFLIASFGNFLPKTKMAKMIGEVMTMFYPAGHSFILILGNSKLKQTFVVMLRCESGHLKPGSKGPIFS
Protocol: as §1, §2

hT2R65 = assay: hT2R panel inhibition, transient HEK293 G16g44, agonist Oleuropein 1 mM; type: cell-based, human; conditions: compound at 25 μM; receptor activated to EC80 with the corresponding agonist
Protocol: as §1, §2

hT2R7 = hT2R7 (Homo sapiens (Human), UniProt Q9NYW3); assay: hT2R panel inhibition, transient HEK293 G16g44, agonist Chloroquine pH6.5 10 mM; type: cell-based; conditions: HEK293, compound at 25 μM; receptor activated to EC80 with the corresponding agonist; read-out: screening result against bitter receptor 7
Chain of hT2R7 (Q9NYW3 whole entry): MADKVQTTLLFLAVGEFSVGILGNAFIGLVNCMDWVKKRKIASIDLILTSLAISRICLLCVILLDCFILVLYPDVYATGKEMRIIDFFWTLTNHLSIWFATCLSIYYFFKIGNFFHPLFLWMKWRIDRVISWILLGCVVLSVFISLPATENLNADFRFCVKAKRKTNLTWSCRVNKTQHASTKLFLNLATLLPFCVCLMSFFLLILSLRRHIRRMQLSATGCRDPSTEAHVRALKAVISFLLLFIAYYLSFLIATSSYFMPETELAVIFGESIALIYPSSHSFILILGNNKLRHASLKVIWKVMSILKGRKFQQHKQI
Protocol: as §1, §2

[1] = receptor activated to EC80 with the corresponding agonist, read-out: screening result against bitter receptor 71
[2] = receptor activated to EC80 with the corresponding agonist, read-out: screening result against bitter receptor 16
[3] = receptor activated to EC80 with the corresponding agonist, read-out: screening result against bitter receptor 61
[4] = receptor activated to EC80 with the corresponding agonist, read-out: screening result against bitter receptor 64
[5] = receptor activated to EC80 with the corresponding agonist, read-out: screening result against bitter receptor 14
[6] = receptor activated to EC80 with agonist

| Compound | inhibition at 25 µM (hT2R71; [1]) [%] | screening result against bitter receptor 63 (hT2R63) | inhibition at 25 µM (hT2R16; [2]) [%] | inhibition at 25 µM (hT2R61; [3]) [%] | screening result against bitter receptor 44 (hT2R44) | screening result against bitter receptor 54 (hT2R54) | screening result against bitter receptor 67 (hT2R67) | inhibition at 25 µM (hT2R64; [4]) [%] | screening result against bitter receptor 55 (hT2R55) | inhibition at 25 µM (hT2R14; [5]) [%] | inhibition at 25 µM (hT2R5) [%] | inhibition at 25 µM (hT2R10) [%] | inhibition at 25 µM (hT2R3) [%] | screening result against bitter receptor 65 (hT2R65) | other results |
| --- | --- | --- | --- | --- | --- | --- | --- | --- | --- | --- | --- | --- | --- | --- | --- |
| N#Cc1ccc(CN(Cc2ccccc2)S(=O)(=O)c2ccc(C(=O)O)cc2)cc1 [Example 5-91, 4-(N-benzyl-N-(4-cyanobenzyl)sulfamoyl)benzoic acid] | 60 to 80 | ++++ (80% or greater inhibition = ++++) | 20 to 40 | > 80 | +++ (60% to 80% inhibition = +++) | + (20% to 40% inhibition = +) | + (20% to 40% inhibition = +) | > 80 | ++++ (80% or greater inhibition = ++++) | > 80 | 20 to 40 | 40 to 60 | 60 to 80 |  |  |
| O=C(O)c1ccc(CN(Cc2ccccc2)S(=O)(=O)c2ccc(C(=O)O)cc2)cc1 [Example 5-48, 4-((N-benzyl-4-carboxyphenylsulfonamido)methyl)benzoic acid] | 60 to 80 |  | 20 to 40 | > 80 | +++ (60% to 80% inhibition = +++) | ++ (40% to 60% inhibition = ++) | + (20% to 40% inhibition = +) | 60 to 80 | ++++ (80% or greater inhibition = ++++) | > 80 | 20 to 40 | 60 to 80 | 40 to 60 | ++ (40% to 60% inhibition = ++) |  |
| COc1ccc(CN(Cc2ccc(F)c(F)c2)S(=O)(=O)c2ccc(C(=O)O)cc2)cc1 [Example 5-36, 4-(N-(3,4-difluorobenzyl)-N-(4-methoxybenzyl)sulfamoyl)benzoic acid] | 60 to 80 | +++ (60% to 80% inhibition = +++) | 20 to 40 | > 80 | ++ (40% to 60% inhibition = ++) | + (20% to 40% inhibition = +) |  | > 80 | ++++ (80% or greater inhibition = ++++) | > 80 |  | 20 to 40 | 40 to 60 | ++ (40% to 60% inhibition = ++) | inhibition at 25 µM (hT2R7): 20 to 40% |
| COc1ccc2c(c1)-c1ccccc1CN(S(=O)(=O)c1ccc(C(=O)O)cc1)C2 [Example 5-106, 4-(2-methoxy-5H-dibenzo[c,e]azepin-6(7H)-ylsulfonyl)benzoic acid] |  |  |  |  |  |  |  |  |  |  |  |  |  |  | inhibition at 25 µM (hT2R71; receptor activated to EC80 with agonist, read-out: inhibition of bitter receptor 71): 20 to 40%; inhibition of bitter receptor 63 (hT2R63; [6]): ++++ (80% or greater inhibition = ++++); inhibition at 25 µM (hT2R16; receptor activated to EC80 with agonist, read-out: inhibition of bitter receptor 16): 20 to 40%; inhibition at 25 µM (hT2R61; receptor activated to EC80 with agonist, read-out: inhibition of bitter receptor 61): 40 to 60%; inhibition of bitter receptor 44 (hT2R44; [6]): ++ (40% to 60% inhibition = ++); inhibition of bitter receptor 54 (hT2R54; [6]): ++ (40% to 60% inhibition = ++); inhibition of bitter receptor 67 (hT2R67; [6]): + (20% to 40% inhibition = +); inhibition at 25 µM (hT2R64; receptor activated to EC80 with agonist, read-out: inhibition of bitter receptor 64): 60 to 80%; inhibition of bitter receptor 55 (hT2R55; [6]): ++++ (80% or greater inhibition = ++++); inhibition at 25 µM (hT2R14; receptor activated to EC80 with agonist, read-out: inhibition of bitter receptor 14): > 80% |
